Consider six compounds from article PMC6682311 (ChemMedChem, 2019).

The test system of data set [1] is M. smegmatis mc^2155 (ATCC 700084). The data set can be described thus: Broth microdilution determination of minimum inhibitory concentrations. It counts as cell-based, Mycobacterium smegmatis.
Data set [2] concerns M. smegmatis biofilms. The data set can be described thus: Biofilm inhibition assay. The format is cell-based, Mycobacterium smegmatis.
Data set [3] deals with M. smegmatis biofilms. The data set can be described thus: Synergy dispersion assay of compound with INH/RIF on pre-formed biofilms. The format is cell-based, Mycobacterium smegmatis. To be noted: INH 256 + RIF 128 µg mL^−1.
Data set [4] in a line: in vitro. To be noted: mouse, plasma, pH 7.4.
Data set [5] is described as follows: Microsome stability assay. To be noted: male, CD-1, mouse, microsomes, pH 7.4.
The nature of data set [6]: in vitro. The note with it: male, CD-1, mouse, microsomes, pH 7.4.
[7] abbreviates: Table 3, trifluoromethyl 2-AIs, no unit printed for these values.

`CCCCCOc1ccc(-c2nc(N)[nH]c2C(F)(F)F)cc1` [Compound 12j, 4-(4-(Pentyloxy)phenyl)-5-(trifluoromethyl)-1H-imidazol-2-amine] returned an MIC in data set [1] (setting [7]) of 200. Further, in the data set with M. smegmatis biofilms [2] (Table 3), half-maximal inhibition (IC50) was put at 7.4 ± 0.6 µM. For the same compound, the “fold reduction in EC50 with antibiotics versus compound alone” value with M. smegmatis biofilms [3] is reported as “four-fold reduction”. For the same compound, the results for the half-life at 100 µM (in the data set “in vitro [4]”; in data set [5]) were 4.8 h and 1.02 h, respectively.
`CCCOc1ccc(-c2nc(N)[nH]c2C(F)(F)F)cc1` [Compound 12h, 4-(4-Propoxyphenyl)-5-(trifluoromethyl)-1H-imidazol-2-amine]: in data set [1] (setting [7]), the MIC was found to be 200.
Still for that read-out and setting: to `CCCCOc1ccc(-c2nc(N)[nH]c2C(F)(F)F)cc1` [Compound 12i, 4-(4-Butoxyphenyl)-5-(trifluoromethyl)-1H-imidazol-2-amine] belongs 200.
`CC(C)NCC(O)COc1cccc2ccccc12` (centres unmarked) [Propanolol, reference compound]: the half-life (in general, the time needed for the level to fall by half in the phase considered) at 100 µM in the data set “in vitro [4]” came out at 0.343 h.
With `CCCCCCc1ccc(-c2nc(N)[nH]c2C(F)(F)F)cc1` [Compound 12g, 4-(4-Hexylphenyl)-5-(trifluoromethyl)-1H-imidazol-2-amine], the MIC in data set [1] (Table 2, 4,5 substituted 2-AIs, unit printed in text b20 only) is given as greater than 200 µM. Also, the concentration for half-maximal inhibition (IC50) (in general, the point on the concentration scale where inhibition reaches its midpoint) with M. smegmatis biofilms [2] (Table 2, highest concentration tested 50 µM) came to 6.8 ± 0.9 µM. For the same compound, in the data set with M. smegmatis biofilms [3], the “fold reduction in EC50 with antibiotics versus compound alone” value is given as “three-fold reduction”. The half-life at 100 µM in the data set “in vitro [4]” is 4.43 h; in data set [5] it was 0.978 h.
As for `CCOc1ccc(NC(C)=O)cc1` [Phenacetin], in “in vitro [6]”, the half-life at 100 µM was found to be 0.59 h.
